{"source": "patent US12186286B2", "about": "(Paracelsus Neuroscience II, LLC, priority 2019, dated 2025)", "key": {"[1]": {"system": "primary rat cortical microglia", "assay": "NO (nitrite) release from LPS-treated primary microglia", "assay_type": "cell-based", "settings": "LPS 3 EU/ml, 24 hours", "description": "(§1) FIG. 4A and FIG. 4B. Effect of KCa3.1 inhibition on NO and IL-1β release from primary microglia. […] (B) Primary rat cortical microglia were incubated with LPS (3 EU/ml) for 24 hours to induce expression of IL-1β.\n(§2) After 24 hours, media was assayed for nitrite (stable metabolite of NO). […] Primary rat cortical microglia were also treated with LPS (3 EU/ml, 3 hours) to stimulate the production of pro-IL-1β."}, "[2]": {"system": "primary rat cortical microglia", "assay": "IL-1β release from primary microglia", "assay_type": "cell-based", "description": "as §1, §2"}, "[3]": {"assay": "Pharmacokinetics and CNS penetration in mouse", "assay_type": "in vivo", "description": "Since experimental surgery-related inflammation is resolved seven days […] the animals are tested, it supported the hypothesis that the efficacy was mediated by inhibition of KCa3.1 on microglia in the spinal cord or brain rather than peripheral immune cells. […] Based on the rat and mouse pharmacokinetic data CNS penetrance in humans seems promising."}, "[4]": {"settings": "cited from earlier work; for free brain concentration / free plasma concentration / Cerebrospinal fluid (CSF) concentration: 10 mg/kg oral; for brain concentration / plasma concentration: 40 mg/kg i.p."}, "[5]": {"settings": "clinical trials; cited from earlier work"}, "[6]": {"system": "cytochrome P450-dependent enzymes", "settings": "cited from earlier work"}, "[7]": {"system": "~70 additional neuronal drug targets (50 neuronal receptors, 8 enzymes, 5 transporters and 7 ion channels)", "settings": "cited from earlier work"}, "[8]": {"system": "mechanical hypersensitivity induced by peripheral nerve injury", "settings": "rat, 10, 30 and 100 mg/kg p.o., only the highest dose significant; cited from earlier work"}, "locomotor activity": {"system": "locomotor activity", "settings": "rat, doses required for efficacy in the chronic constriction injury model; cited from earlier work"}, "[9]": {"settings": "clinical trials, healthy volunteers and sickle cell patients; cited from earlier work"}, "sickle cell disease [10]": {"system": "sickle cell disease", "settings": "Phase 2, 10 mg/day, sickle cell patients; cited from earlier work"}, "sickle cell disease [11]": {"system": "sickle cell disease", "settings": "Phase 3, sickle cell patients, cited from earlier work"}, "[12]": {"system": "non-selective cation current in primary microglia", "settings": "primary microglia stimulated with LPC; cited from earlier work"}, "human KCa3.1": {"target": "T1, human KCa3.1 (Homo sapiens, UniProt O15554)", "T1 construct": "expressed in transfected cells", "settings": "human KCa3.1 expressed in recombinant cells; read-out: In-vitro IC50 (nM)*; cited from earlier work"}, "[13]": {"settings": "primates; cited from earlier work"}, "human CYP2B6": {"target": "T2, human CYP2B6 (Homo sapiens, UniProt P20813)", "T2 sequence (P20813 1-491)": "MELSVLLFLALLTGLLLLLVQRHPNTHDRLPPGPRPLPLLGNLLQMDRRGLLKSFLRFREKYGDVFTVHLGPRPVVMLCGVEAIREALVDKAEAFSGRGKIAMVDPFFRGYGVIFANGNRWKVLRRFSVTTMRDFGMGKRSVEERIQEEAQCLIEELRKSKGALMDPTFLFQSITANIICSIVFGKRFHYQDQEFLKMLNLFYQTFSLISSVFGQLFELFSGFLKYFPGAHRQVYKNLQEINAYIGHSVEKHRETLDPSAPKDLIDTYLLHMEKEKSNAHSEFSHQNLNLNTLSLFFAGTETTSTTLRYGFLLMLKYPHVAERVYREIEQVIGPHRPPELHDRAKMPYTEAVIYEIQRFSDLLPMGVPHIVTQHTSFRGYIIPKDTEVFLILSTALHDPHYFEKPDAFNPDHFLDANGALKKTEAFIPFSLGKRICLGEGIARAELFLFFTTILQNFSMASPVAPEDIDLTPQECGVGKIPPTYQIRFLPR", "settings": "cited from earlier work"}, "human CYP2C19": {"target": "human CYP2C19 (Homo sapiens, UniProt P33261)", "sequence (P33261 whole entry)": "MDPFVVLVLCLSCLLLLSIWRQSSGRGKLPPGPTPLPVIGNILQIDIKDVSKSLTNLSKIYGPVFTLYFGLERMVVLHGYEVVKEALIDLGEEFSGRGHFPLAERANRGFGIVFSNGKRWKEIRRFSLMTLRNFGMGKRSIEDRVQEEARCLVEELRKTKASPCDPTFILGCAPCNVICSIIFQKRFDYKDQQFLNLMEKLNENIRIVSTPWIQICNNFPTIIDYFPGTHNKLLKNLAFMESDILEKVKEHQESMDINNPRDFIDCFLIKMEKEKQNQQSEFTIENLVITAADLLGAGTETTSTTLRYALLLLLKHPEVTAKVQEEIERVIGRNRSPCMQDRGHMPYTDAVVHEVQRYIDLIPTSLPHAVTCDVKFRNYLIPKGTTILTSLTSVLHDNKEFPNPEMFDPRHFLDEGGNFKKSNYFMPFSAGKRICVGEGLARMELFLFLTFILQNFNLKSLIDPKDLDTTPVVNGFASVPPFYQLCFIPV", "settings": "cited from earlier work"}, "human CYP3A4": {"target": "human CYP3A4 (Homo sapiens, UniProt P08684)", "sequence (P08684 whole entry)": "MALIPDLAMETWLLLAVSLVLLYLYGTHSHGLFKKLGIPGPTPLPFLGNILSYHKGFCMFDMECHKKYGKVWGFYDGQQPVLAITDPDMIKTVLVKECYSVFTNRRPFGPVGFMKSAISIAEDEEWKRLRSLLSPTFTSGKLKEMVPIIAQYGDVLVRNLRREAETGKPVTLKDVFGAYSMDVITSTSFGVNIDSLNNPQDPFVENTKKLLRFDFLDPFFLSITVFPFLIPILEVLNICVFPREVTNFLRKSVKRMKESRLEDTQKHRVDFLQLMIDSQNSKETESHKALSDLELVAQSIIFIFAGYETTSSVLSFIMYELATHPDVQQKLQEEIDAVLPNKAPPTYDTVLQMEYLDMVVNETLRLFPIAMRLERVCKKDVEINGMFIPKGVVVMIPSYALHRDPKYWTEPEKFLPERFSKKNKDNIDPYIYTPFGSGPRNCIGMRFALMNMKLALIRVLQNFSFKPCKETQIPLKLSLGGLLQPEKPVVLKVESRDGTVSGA", "settings": "cited from earlier work"}, "ischemic stroke": {"system": "ischemic stroke", "settings": "rat, cited from earlier work"}}, "note": "“Also recorded” adds a separate entry of the source. Where two headings read alike, the source gives them in different places.", "data": [{"compound": "NC(=O)C(c1ccccc1)(c1ccc(F)cc1)c1ccc(F)cc1", "note": "[Senicapoc, senicapoc]", "values": [{"measurement": "IC50", "setting": "[1]; average", "result": 39, "unit": "nM"}, {"measurement": "EC50", "setting": "[1]; representative experiment (n=3), read-out: EC50, production of NO (nitrite)", "result": 0.9, "unit": "nM"}, {"measurement": "IC50", "setting": "[2]; LPS 3 EU/ml 3 hours, then BzATP 1 mM", "result": 15, "unit": "nM"}, {"measurement": "IC50", "setting": "[2]; figure legend: LPS 3 EU/ml for 24 hours (n=3)", "result": 1.3, "unit": "nM"}, {"measurement": "brain versus plasma levels", "setting": "[3]", "result": "higher levels in brain than plasma"}, {"measurement": "Cmax-Total (nM) Plasma", "setting": "[3]; 10 mg/kg p.o., plasma", "result": 709, "unit": "nM"}, {"measurement": "fraction unbound", "setting": "[3]; brain, read-out: % unbound Brain", "result": 0.008}, {"measurement": "Tmax", "setting": "[3]; in vivo, po, 10 mg/kg p.o.", "result": 19.8, "unit": "min"}, {"measurement": "half-life", "setting": "[3]; in vivo, po, 10 mg/kg p.o., read-out: T½ (converted)", "result": 186, "unit": "min"}, {"measurement": "fraction unbound", "setting": "[3]; plasma, read-out: % unbound Plasma", "result": 0.015}, {"measurement": "free brain concentration", "setting": "[4]; rat, four hours post-dose", "result": 136, "unit": "nM"}, {"measurement": "free plasma concentration", "setting": "[4]; rat, four hours post-dose", "result": 65, "unit": "nM"}, {"measurement": "Cerebrospinal fluid (CSF) concentration", "setting": "[4]; rat, four hours post-dosing", "result": 121, "unit": "nM"}, {"measurement": "free brain concentration", "setting": "[4]; rat, one hour post-dose", "result": 37, "unit": "nM"}, {"measurement": "free plasma concentration", "setting": "[4]; rat, one hour post-dose", "result": 17, "unit": "nM"}, {"measurement": "Cerebrospinal fluid (CSF) concentration", "setting": "[4]; rat, one hour post-dosing", "result": 25, "unit": "nM"}, {"measurement": "Cmax-Unbound (nM) CSF", "setting": "[4]; rat, 10 mg/kg p.o., CSF", "result": 121, "unit": "nM"}, {"measurement": "Cmax-Total (nM) Brain", "setting": "[4]; rat, 10 mg/kg p.o.", "result": "17,000 nM"}, {"measurement": "Cmax-Unbound (nM) Brain", "setting": "[4]; rat, 10 mg/kg p.o.", "result": 136, "unit": "nM"}, {"measurement": "Cmax-Total (nM) Plasma", "setting": "[4]; rat, 10 mg/kg p.o.", "result": "2,400 nM"}, {"measurement": "Cmax-Unbound (nM) Plasma", "setting": "[4]; rat, 10 mg/kg p.o.", "result": 65, "unit": "nM"}, {"measurement": "T½", "setting": "[4]; rat, 10 mg/kg p.o.", "result": 1, "unit": "h"}, {"measurement": "% unbound Plasma", "setting": "[4]; rat", "result": 2.7, "unit": "%"}, {"measurement": "blood-brain barrier crossing", "setting": "[4]; rat", "result": "cross the blood-brain barrier"}, {"measurement": "t1/2 in humans", "setting": "[5]", "result": 23, "unit": "days"}, {"measurement": "effect on cytochrome P450-dependent enzymes", "setting": "[6]", "result": "does not suffer from metabolic instability or effects on cytochrome P450"}, {"measurement": "inhibition of ~70 additional neuronal drug targets", "setting": "[7]; 1 μM", "result": "None of the targets tested was inhibited"}, {"measurement": "off target effects", "setting": "[7]; at concentrations that block KCa3.1", "result": "no known off target effects"}, {"measurement": "mechanical hypersensitivity", "setting": "[8]", "result": "attenuated"}, {"measurement": "locomotor activity", "setting": "locomotor activity", "result": "did not observe any significant impact; also recorded: did not alter activity"}, {"measurement": "tolerability / side effects in humans", "setting": "[9]", "result": "without any significant side effects; also recorded: well tolerated; also recorded: safe and has a low incidence of side effects"}, {"measurement": "hematocrit and hemoglobin levels", "setting": "sickle cell disease [10]", "result": "significantly increased"}, {"measurement": "hemolysis", "setting": "sickle cell disease [10]", "result": "reduced"}, {"measurement": "pain outcome measures (vaso-occlusive / painful crises)", "setting": "sickle cell disease [11]", "result": "no improvement"}, {"measurement": "pain outcome measures (vaso-occlusive / painful crises)", "setting": "sickle cell disease [11]; listed as senicapoc", "result": "no effect"}]}, {"compound": "charybdotoxin", "values": [{"measurement": "effect on LPC signals", "setting": "[12]", "result": "no effect"}]}, {"compound": "O=C1CSc2ccccc2N1Cc1cccc(C(F)(F)F)c1", "note": "[NS6180, 4-[[3-(trifluoromethyl)phenyl]methyl]-2H-1,4-benzothiazin-3(4H)-one]", "values": [{"measurement": "IC50", "setting": "human KCa3.1", "result": 9.4, "unit": "nM"}, {"measurement": "Cmax-Total (nM) Plasma", "setting": "[4]; rat, 10 mg/kg p.o.", "result": 186, "unit": "nM"}, {"measurement": "T½", "setting": "[4]; rat, 10 mg/kg p.o.", "result": 3.8, "unit": "h"}]}, {"compound": "Clc1ccccc1C(c1ccccc1)(c1ccccc1)n1cccn1", "note": "[TRAM-34]", "values": [{"measurement": "Cmax-Total (nM) Brain", "setting": "[4]; rat, 10 mg/kg p.o.", "result": "~2500", "unit": "nM"}, {"measurement": "Cmax-Unbound (nM) Brain", "setting": "[4]; rat, 10 mg/kg p.o.", "result": 50, "unit": "nM"}, {"measurement": "Cmax-Total (nM) Plasma", "setting": "[4]; rat, 10 mg/kg p.o.", "result": "~2500", "unit": "nM"}, {"measurement": "Cmax-Unbound (nM) Plasma", "setting": "[4]; rat, 10 mg/kg p.o.", "result": 50, "unit": "nM"}, {"measurement": "Tmax", "setting": "[4]; rat, 10 mg/kg p.o.", "result": "30 to 60", "unit": "min"}, {"measurement": "T½", "setting": "[4]; rat, 10 mg/kg p.o.", "result": "~2", "unit": "h"}, {"measurement": "brain concentration", "setting": "[4]; rat, 8 hours", "result": "~1", "unit": "µmol/L"}, {"measurement": "plasma concentration", "setting": "[4]; rat, 8 hours", "result": "~1", "unit": "µmol/L"}, {"measurement": "brain concentration", "setting": "[4]; rat, 12 hours", "result": 0.4, "unit": "µmol/L"}, {"measurement": "plasma concentration", "setting": "[4]; rat, 12 hours", "result": 0.4, "unit": "µmol/L"}, {"measurement": "% unbound Plasma", "setting": "[4]; rat", "result": 2, "unit": "%"}, {"measurement": "% unbound in plasma", "setting": "[4]; rat", "result": "approximately 2%"}, {"measurement": "half-life", "setting": "[4]; rats", "result": "~2", "unit": "h"}, {"measurement": "half-life", "setting": "[13]", "result": "~2", "unit": "h"}, {"measurement": "effect on cytochrome P450-dependent enzymes", "setting": "[6]", "result": "no effect"}, {"measurement": "IC50, CYP2B6", "setting": "human CYP2B6", "result": "low micromolar range"}, {"measurement": "IC50, CYP2C19", "setting": "human CYP2C19", "result": "low micromolar range"}, {"measurement": "IC50, CYP3A4", "setting": "human CYP3A4", "result": "low micromolar range"}, {"measurement": "neuronal loss", "setting": "ischemic stroke; 10 and 40 mg/kg i.p.", "result": "significantly attenuated"}, {"measurement": "post stroke infarct volume", "setting": "ischemic stroke; 10 and 40 mg/kg i.p.", "result": "significantly attenuated"}, {"measurement": "outcome when given 12 hours after the ischemic insult", "setting": "ischemic stroke; given 12 hours after insult", "result": "improved the outcome"}, {"measurement": "extent of microglial ED1 staining", "setting": "ischemic stroke", "result": "significantly reduced"}, {"measurement": "neurological deficit score", "setting": "ischemic stroke", "result": "improved"}]}]}
